Experiment [1] has as its target T1, Short transient receptor potential channel 4 (Mus musculus, UniProt Q9QUQ5).
T1 sequence (Q9QUQ5 whole entry): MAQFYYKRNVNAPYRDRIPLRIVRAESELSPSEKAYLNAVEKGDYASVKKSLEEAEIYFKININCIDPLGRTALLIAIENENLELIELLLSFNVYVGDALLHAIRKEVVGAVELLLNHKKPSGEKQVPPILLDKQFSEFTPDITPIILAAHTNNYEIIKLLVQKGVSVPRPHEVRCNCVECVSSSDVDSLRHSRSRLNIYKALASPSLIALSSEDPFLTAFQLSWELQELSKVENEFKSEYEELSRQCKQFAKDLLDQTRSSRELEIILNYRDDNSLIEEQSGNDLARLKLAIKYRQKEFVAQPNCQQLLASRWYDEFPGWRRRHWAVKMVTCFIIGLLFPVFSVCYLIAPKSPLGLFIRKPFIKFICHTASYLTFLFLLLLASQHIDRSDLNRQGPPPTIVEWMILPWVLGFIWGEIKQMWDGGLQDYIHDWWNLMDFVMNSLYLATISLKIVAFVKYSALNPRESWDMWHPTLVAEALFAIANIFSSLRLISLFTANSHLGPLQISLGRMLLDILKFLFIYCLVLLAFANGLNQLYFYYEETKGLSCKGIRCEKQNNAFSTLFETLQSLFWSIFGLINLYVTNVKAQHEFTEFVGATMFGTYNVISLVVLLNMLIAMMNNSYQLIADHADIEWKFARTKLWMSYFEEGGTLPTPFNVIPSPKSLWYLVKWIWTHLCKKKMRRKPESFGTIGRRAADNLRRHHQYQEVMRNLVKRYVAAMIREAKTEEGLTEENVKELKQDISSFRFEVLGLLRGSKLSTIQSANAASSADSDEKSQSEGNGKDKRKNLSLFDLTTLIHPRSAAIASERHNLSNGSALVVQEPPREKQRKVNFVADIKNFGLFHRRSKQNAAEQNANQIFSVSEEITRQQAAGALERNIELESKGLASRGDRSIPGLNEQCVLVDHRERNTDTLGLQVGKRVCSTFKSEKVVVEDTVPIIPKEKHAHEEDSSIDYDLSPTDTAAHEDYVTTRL
The experiment in a line: mouse TRPC4 channel inhibitors, dose response, cell-based, HEK293 TRPC4/mu-opioid, Fluo-4 calcium (AID 434942).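 Note: potency of inhibitors blocking the TRPC4 calcium response.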 Type of experiment: functional.

Experiment [2] has as its target Luciferin 4-monooxygenase (Photinus pyralis, UniProt P08659). Description: firefly luciferase enzyme inhibitors, dose response, biochemical, luminescence (AID 1891).
A short description of experiment [3]: Luminescence Cell-Based Dose Confirmation HTS to Identify Inhibitors of Platelet Dense Granule Release. [Related pubchem assays: 1663 (Primary HTS), 1678 (Summary of Project)]. Type of experiment: functional.
The target in experiment [4] is T2, Rac GTPase-activating protein 1 (Homo sapiens, UniProt Q9H0H5).
T2 sequence (Q9H0H5 whole entry): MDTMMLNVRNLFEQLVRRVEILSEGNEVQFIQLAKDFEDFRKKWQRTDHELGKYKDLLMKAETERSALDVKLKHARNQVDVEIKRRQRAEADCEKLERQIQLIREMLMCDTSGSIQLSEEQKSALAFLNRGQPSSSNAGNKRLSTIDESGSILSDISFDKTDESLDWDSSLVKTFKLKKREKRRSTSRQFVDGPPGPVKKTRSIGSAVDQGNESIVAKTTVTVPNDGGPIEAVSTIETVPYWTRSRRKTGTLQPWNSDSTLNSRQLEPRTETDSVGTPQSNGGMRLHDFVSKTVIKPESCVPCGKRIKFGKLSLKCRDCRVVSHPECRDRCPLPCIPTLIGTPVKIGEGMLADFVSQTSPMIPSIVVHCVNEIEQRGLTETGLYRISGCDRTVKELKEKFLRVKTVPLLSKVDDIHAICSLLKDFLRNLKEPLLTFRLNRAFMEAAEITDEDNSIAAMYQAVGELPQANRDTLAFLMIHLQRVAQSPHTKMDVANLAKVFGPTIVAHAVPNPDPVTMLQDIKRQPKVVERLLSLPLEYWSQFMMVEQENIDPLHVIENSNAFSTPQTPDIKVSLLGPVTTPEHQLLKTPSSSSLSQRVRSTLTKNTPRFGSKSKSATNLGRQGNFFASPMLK
Description: MgcRacGAP GTPase-activating activity inhibitors, confirmation, biochemical, ADP Hunter fluorescence, primary and confirmatory (AID 624330). Type of experiment: functional.

The test system of the next experiment is H9c2. The experiment in a line: cells. Type of experiment: functional, cell-based. The settings on record: Rattus norvegicus, H9c2, Myocardium.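 Note: confirmatory concentration-response retest of ultra-high-throughput screening hits for modulation of myocardial damage; cell death induced by hydrogen peroxide oxidative stress; compound pretreatment for 60 min then peroxide exposure for 2 h; potency is for protecting the cells against peroxide damage rather than for killing them.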
Experiment [5] has as its target T3, RNA-binding protein pos-1 (Caenorhabditis elegans, UniProt G5EF15).
T3 sequence (G5EF15 whole entry): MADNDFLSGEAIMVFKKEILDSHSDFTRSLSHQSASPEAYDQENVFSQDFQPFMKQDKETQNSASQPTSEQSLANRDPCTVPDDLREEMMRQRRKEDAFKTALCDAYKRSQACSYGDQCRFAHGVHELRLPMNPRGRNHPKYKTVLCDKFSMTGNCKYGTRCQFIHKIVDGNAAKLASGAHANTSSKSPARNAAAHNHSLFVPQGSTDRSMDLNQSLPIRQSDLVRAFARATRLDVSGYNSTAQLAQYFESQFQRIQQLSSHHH
Description: inhibitors of POS-1/mex-3 RNA binding, dose response, biochemical, fluorescence polarization (AID 1964).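 Note: purified POS-1 fused to maltose binding protein made in E. coli; potency of compounds blocking POS-1 binding to fluorescent RNA.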 For orientation: In fluorescence polarisation assays a small probe gives low polarisation when free and higher when bound to something large.

The target in a further experiment is Cytochrome P450 2C9 (Homo sapiens, UniProt P11712).
In the next experiment the target is Cytochrome P450 2C19 (Homo sapiens, UniProt P33261). The experiment in a line: Cytochrome panel assay with activity outcomes. Panel member name: p450-cyp2c19 Compounds with AC50 equal or less than 10 uM are considered active. The format is functional. The conditions noted are these: read-out: AC50.
A further experiment deals with T4, Cytochrome P450 1A2 (Homo sapiens, UniProt P05177).
T4 sequence (P05177 whole entry): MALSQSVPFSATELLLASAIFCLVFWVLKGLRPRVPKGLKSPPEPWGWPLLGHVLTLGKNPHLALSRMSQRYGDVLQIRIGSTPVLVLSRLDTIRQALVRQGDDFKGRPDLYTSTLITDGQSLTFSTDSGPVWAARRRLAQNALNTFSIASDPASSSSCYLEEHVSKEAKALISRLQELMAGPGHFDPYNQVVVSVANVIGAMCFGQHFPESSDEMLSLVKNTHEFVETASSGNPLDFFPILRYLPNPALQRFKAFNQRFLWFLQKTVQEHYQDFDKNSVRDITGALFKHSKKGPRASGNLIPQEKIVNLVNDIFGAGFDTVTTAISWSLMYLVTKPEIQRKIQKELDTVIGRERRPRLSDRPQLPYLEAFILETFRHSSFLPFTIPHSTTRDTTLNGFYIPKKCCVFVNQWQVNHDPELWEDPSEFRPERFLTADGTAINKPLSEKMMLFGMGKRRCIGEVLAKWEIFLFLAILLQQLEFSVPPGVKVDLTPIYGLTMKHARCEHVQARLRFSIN

Experiment [6] is described as follows: inhibitors of SNCA 5'UTR-driven reporter translation, confirmation, H4 neuroglioma cells, luminescence (AID 1988). The format is functional, cell-based.
Experiment [7] can be described thus: Luminescence Cell-Based Dose Retest to Confirm Inhibitors of Cancer Stem Cells. [Related pubchem assays (depositor defined):AID2717, AID2721]. Type of experiment: functional. The conditions noted are these: Homo sapiens.
Another experiment concerns the target Cytochrome P450 3A4 (Homo sapiens, UniProt P08684).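 Note: CYP3A4 tested as one member of a cytochrome P450 panel screen.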

The source made the active and inactive calls.

Luciferin 4-monooxygenase, sequence (P08659 whole entry): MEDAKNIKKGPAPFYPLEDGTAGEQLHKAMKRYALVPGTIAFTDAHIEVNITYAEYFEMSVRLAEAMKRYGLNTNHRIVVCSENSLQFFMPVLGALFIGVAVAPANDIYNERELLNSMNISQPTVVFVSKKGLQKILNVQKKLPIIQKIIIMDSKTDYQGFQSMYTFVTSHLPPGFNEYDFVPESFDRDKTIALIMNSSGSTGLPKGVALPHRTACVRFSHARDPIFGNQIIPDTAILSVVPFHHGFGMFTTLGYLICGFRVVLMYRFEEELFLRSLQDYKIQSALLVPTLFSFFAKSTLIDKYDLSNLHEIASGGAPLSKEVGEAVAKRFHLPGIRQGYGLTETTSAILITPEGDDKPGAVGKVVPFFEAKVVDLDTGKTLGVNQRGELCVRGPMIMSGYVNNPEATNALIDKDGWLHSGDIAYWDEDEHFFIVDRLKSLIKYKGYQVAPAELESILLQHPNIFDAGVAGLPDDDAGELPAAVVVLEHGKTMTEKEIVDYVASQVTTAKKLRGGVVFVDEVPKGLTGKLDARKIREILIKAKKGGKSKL
Cytochrome P450 2C9, sequence (P11712 whole entry): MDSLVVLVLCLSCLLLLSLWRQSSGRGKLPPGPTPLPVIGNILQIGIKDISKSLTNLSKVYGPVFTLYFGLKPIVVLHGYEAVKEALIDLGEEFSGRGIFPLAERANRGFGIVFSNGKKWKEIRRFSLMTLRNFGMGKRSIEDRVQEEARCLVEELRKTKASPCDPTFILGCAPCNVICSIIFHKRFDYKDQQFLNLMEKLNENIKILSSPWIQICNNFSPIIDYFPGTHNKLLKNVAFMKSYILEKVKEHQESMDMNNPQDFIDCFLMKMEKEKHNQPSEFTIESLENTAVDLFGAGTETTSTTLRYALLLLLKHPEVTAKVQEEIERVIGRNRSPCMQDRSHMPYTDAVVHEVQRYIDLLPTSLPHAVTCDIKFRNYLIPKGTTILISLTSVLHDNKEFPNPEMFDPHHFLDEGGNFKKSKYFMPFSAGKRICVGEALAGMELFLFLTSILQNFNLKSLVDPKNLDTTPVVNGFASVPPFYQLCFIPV
Cytochrome P450 2C19, sequence (P33261 whole entry): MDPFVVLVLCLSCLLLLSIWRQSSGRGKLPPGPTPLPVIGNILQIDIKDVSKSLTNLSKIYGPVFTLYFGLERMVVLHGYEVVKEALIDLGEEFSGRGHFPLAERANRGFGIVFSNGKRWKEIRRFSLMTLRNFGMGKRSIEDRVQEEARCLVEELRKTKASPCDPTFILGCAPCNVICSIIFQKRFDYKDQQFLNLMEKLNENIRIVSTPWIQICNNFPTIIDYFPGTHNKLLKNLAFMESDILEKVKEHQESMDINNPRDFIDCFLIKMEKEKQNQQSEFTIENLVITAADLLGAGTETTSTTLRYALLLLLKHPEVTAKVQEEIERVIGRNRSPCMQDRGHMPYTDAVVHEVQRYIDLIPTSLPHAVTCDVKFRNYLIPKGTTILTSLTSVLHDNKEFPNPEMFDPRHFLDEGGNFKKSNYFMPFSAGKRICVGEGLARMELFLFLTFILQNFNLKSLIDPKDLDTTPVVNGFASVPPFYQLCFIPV
Cytochrome P450 3A4, sequence (P08684 whole entry): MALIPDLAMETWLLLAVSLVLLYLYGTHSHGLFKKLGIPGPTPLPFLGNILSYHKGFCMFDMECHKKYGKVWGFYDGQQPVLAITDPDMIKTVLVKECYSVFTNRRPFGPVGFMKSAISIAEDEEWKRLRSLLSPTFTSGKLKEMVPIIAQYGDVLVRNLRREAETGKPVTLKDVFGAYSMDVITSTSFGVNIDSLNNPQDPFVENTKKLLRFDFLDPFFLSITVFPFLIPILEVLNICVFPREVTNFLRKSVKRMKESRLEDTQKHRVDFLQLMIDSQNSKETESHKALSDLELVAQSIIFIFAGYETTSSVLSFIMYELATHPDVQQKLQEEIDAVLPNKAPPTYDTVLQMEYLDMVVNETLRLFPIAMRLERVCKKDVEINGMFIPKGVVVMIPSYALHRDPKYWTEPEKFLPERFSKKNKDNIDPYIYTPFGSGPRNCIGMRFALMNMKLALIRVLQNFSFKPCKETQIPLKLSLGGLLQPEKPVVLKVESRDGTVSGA

As usually defined, the EC50 is the concentration that produces a half-maximal response. `CCOC(=O)CSc1nc2c(sc(=S)n2Cc2ccco2)c(=O)n1-c1ccccc1`: in [1], the EC50 was 2.37 µM (active).

With `CC(C)CC(=O)Nc1cccc(NC(=O)c2ccccc2Cl)c1`, the EC50 in [2] was > 112 µM (not active); in [3] it was 2.39 µM (active).

In the case of `C=CCOc1ccc(C2CC(C)=NN2c2ccccc2)cc1` (stereo unspecified), in experiment [1], the EC50 is 4.22 µM (active).

In the case of `CC(=O)Nc1ccc(OC(=O)N(C)c2ccccc2)cc1`, the figures for the EC50 in experiment [2] and in experiment [3] were > 112 µM (not active) and 18.8 µM (active), respectively.

`Cc1ccc(NC(=O)CSCC(=O)OCc2cc(=O)oc3cc(O)ccc23)c(C)c1`: the EC50 in experiment [1] was 5.96 µM (active).

As usually defined, the IC50 is the concentration needed to halve the response being measured. Consider `COc1cc(/C=C/C(=O)OC(C)C(=O)Nc2c(C)n(C)n(-c3ccccc3)c2=O)ccc1O` (stereo unspecified), for which the IC50 in [4] was 61.4 µM (active).

As to `COc1ccc(C(=O)NNC(=O)c2ccc3ccccc3n2)cc1`, the IC50 with H9c2 is > 79 µM (inactive).

As for `O=C1CSC(Nc2ccc(O)cc2)=N1`, the IC50 in experiment [4] is 35.9 µM (active).

Consider `CS(=O)(=O)N(Cc1ccc(C(=O)NCCSc2ccccn2)cc1)c1ccccc1`, for which, in the experiment with H9c2, the IC50 was 17.4 µM (active).

Consider `O=C(Cn1c(NCCCO)nc2ccccc21)c1ccc(Br)cc1`, for which the EC50 in [1] was 2.99 µM (active).

On to `Cc1ccc(NC(=O)CN2CCc3ccccc3C2)cc1S(=O)(=O)N1CCOCC1`, for which, in experiment [1], the EC50 is 3.76 µM (active).

Turning to `Nc1nc(Nc2ccccc2)nc2c1ncn2[C@@H]1O[C@H](CO)[C@@H](O)[C@H]1O`, the EC50 is > 112 µM (not active) in experiment [2] and 0.224 µM (active) in experiment [3].

Turning to `CCOC(=O)c1ccccc1OCc1cc(/C=N/NC(=O)c2cccnc2)ccc1OC`, the IC50 with H9c2 is > 79 µM (inactive).

`Cc1ccccc1OCCC(=O)N1CCN(S(=O)(=O)c2ccccc2F)CC1`: the EC50 in [2] and in experiment [3] was > 112 µM (not active) throughout.

As to `COc1cc(CNC2CCCCC2OC)cc(OC)c1` (stereo unspecified), the IC50 in experiment [4] was 152 µM (active).

As to `CCCCn1c(SCC(=O)OCC)nc2c(sc(=S)n2-c2ccccc2OC)c1=O`, the EC50 in experiment [1] was 1.68 µM (active).

In the case of `COc1ccc(CCCNC(=O)C2(C)Cc3c(-c4ccc(NC(C)=O)cc4)ccnc3O2)cc1` (stereo unspecified), in the experiment on H9c2, the IC50 is > 79 µM (inactive).

As to `O=C(CN1C(=O)c2cccc3cccc1c23)N1CCN(c2cccc(Cl)c2)CC1`, the EC50 in experiment [2] and in experiment [3] was > 112 µM (not active) in each case.

Regarding `CCS(=O)(=O)c1ccc2oc(=O)c(/C=C(\O)c3ccc(Cl)cc3)nc2c1`, the IC50 in [4] was 99.7 µM (active).

For the compound `COc1ccc(CNC(=O)CN(C)Cc2ccccc2F)cc1OC`, the EC50 in experiment [1] was 8.41 µM (active).

With `CCOc1cc(/C=C/c2nc(O)c3ccccc3n2)ccc1O`, the IC50 in the experiment on H9c2 was 9.17 µM (active).

For the compound `COc1ccc(C)cc1N(C(=O)c1snc(C(N)=O)c1N)C(C(=O)NC1CCCC1)c1ccc(F)cc1` (stereo unspecified), the concentration for a half-maximal effect (EC50) in [1] is 1.33 µM (active).

On to `CN(C)c1ccc(/C=N/N(CCC(=O)NC(C)(C)C)C2=NS(=O)(=O)c3ccccc32)cc1`, for which the EC50 in [5] is > 300 µM (not active).

As to `CC(=O)Nc1cccc(-c2cc(NC(C)=O)c3ncc(-c4cccc(C(C)=O)c4)n3c2)c1`, the IC50 in the experiment with H9c2 was > 79 µM (inactive).

Take `Oc1ccc(N2CCN(c3ccnc4cc(Cl)ccc34)CC2)cc1`: the IC50 in [4] is 48.3 µM (active).

Consider `CCOc1ccc(N/C=C/C(=O)c2ccc(OC)cc2)cc1`, for which the EC50 in experiment [2] and in experiment [3] was > 112 µM (not active) each time.

In general, AC50 refers to the concentration at which the activity in the assay is half-maximal. On to `CCOC(=O)c1ccc(-c2ccc(/C=C(\C#N)C(=O)NCC3CCCO3)o2)cc1` (stereo unspecified), for which the half-maximal activity concentration (AC50) on Cytochrome P450 2C9 is 5.62 µM (inconclusive); at Cytochrome P450 2C19 it was 2.51 µM (inconclusive); at Cytochrome P450 1A2 it was 4.47 µM (inconclusive). The IC50 in the experiment with H9c2 was > 79 µM (inactive).

For the compound `Cc1cc(C)c(S(=O)(=O)c2ccccc2C)c(OCC(C)(C)C)n1`, the EC50 in experiment [1] was 2.37 µM (active).

Turning to `CCOc1cc(/C=N/NC(=O)C(C)Sc2ccccn2)ccc1O` (stereo unspecified), in experiment [4], the IC50 is 39.8 µM (active).

Consider `O=C(CCCSc1nc(O)c2c3c(sc2n1)CCC3)NCCCO`, for which the IC50 with H9c2 was 19.9 µM (active).

With `Clc1ccc(/C=C/c2nc3ccccc3[nH]2)cc1`, the EC50 in experiment [2] is 0.545 µM (active); in [3] it was 1.05 µM (active); in experiment [6], 9.68 µM (inconclusive). In addition, in [7], the AC50 was 2.34 µM (active).

Turning to `CN(CC(=O)Nc1cccc(F)c1)C(=O)CCCc1nc(O)c2ccccc2n1`, the IC50 in the experiment on H9c2 is > 79 µM (inactive).

For the compound `CCOC(=O)c1ccccc1NC(=O)c1ccc2c(=O)n3c(nc2c1)CCCCC3`, the IC50 in the experiment with H9c2 is > 79 µM (inactive).

As to `CCCCN(Cc1ccccc1)C(=O)C1CCN(Cc2sccc2C)CC1`, the EC50 in [1] was 2.99 µM (active).

As to `O=C(CCc1ccccc1)Nc1nncs1`, the AC50 on Cytochrome P450 2C9 was 31.6 µM (inconclusive); at Cytochrome P450 2C19, 39.8 µM (inconclusive); on Cytochrome P450 3A4, 12.6 µM (inconclusive). Besides, the EC50 in experiment [2] and in experiment [3] was > 112 µM (not active) in each case.

Consider `CCn1nnc(NC(=O)c2cccnc2)n1`, for which the EC50 in experiment [2] and in experiment [3] was > 112 µM (not active) in each case.

With `COc1cc(-c2cc(NC(C)=O)c3ncc(-c4cc(OC)c(OC)c(OC)c4)n3c2)cc(OC)c1OC`, the IC50 in the experiment on H9c2 is > 79 µM (inactive).

With `CSc1nc(N2CCOCC2)c2c3c(sc2n1)CCCC3`, in experiment [1], the EC50 is 4.73 µM (active).

`Nc1c2c(nc3c1CCCC3)CCCC2.O=C(O)c1ccnc(O)c1`: in experiment [1], the EC50 was 2.99 µM (active).
